Legend:
[1] = system: MCF7-NCi; test: Cell viability by total cell protein quantity, MCF7-NCi; format: cell-based; conditions: Homo sapiens, 48 h, two days
Experimental: (§1) The effect of different compounds of the invention on cell viability was next evaluated by measuring total cell protein quantity. Different cell lines were incubated for two days in the presence of increasing concentrations of the different compounds of the present invention.

[2] = system: Bod 3-SPM; test: Sphingolipid metabolism from Bodipy-C3-ceramide in MCF-NCi cells: Bod3-SPM; format: cell-based; conditions: Homo sapiens, 3 hours, 2.5 µM Bodipy-C3-ceramide, read-out: Bod 3-SPM (IC50 for reduction)
Experimental: (§2) In order to examine the effect of the different compounds on sphingolipids metabolism, different cell lines were incubated with increasing concentrations of different compounds of the invention in the presence of 2.5 µM Bodipy-C3-ceramide that was added to the culture medium as a solution in dimethylsulfoxide (not exceeding 0.1% DMSO of the final volium). After 3 hours, cells and medium were collected and centrifuged. Cells were next extracted with chloroform- methanol containing 2% acetic acid 1:1 (by volume) and the medium was shaken with an equal volume of chloroform-methanol, 1:1 (by volume). The phases were separated by centrifugation and the lower chloroform phase was collected. The solvents were evaporated and applied to thin layer chromatography silica gel plates (Whatman 4865-821) with a concentrating zone.
(§3) Plates were developed as follows: For medium: in chloroform-methanol-H2O, 75:25:4 by volume. For cells: plates were first developed with chloroform-methanol, 9:1, then dried and re-run in chloroform-methanol: H2O, 65:35:4.
(§4) Standards of Bodipy-C3-ceramide: Bodipy-C3-glucosylceramide (Bod3-GC) and Bodipy C3 sphingomyelin (Bod3-SPM) were used as markers. The fluorescence of the respective Bod3-SPM and Bod3-GC spots was quantified using a Fuji FLA-2000 scanner.

[3] = system: Bod 3-GC; test: Sphingolipid metabolism from Bodipy-C3-ceramide in MCF-NCi cells: Bod3-GC; format: cell-based; conditions: Homo sapiens, 3 hours, 2.5 µM Bodipy-C3-ceramide, read-out: Bod 3-GC (IC50 for reduction)
Experimental: as §2, §3, §4

[4] = system: MCF7-AdrR; test: Cell viability by total cell protein quantity, MCF7-AdrR; format: cell-based; conditions: Homo sapiens, 48 h, two days
Experimental: as §1

[5] = system: U937 cells; test: Apoptosis in U937 cells, DEVDase/caspase 3 activity kit; format: cell-based; conditions: Homo sapiens, U-937; U937, 5 µM, 24 hours; read-out: number of apoptotic cells relative to control cells
Experimental: Myeloid, leukemic U937 cells were incubated for 24 hours in the absence or in the presence of 5 µM AD-2672 and AD-2665. Cells were then collected and the percent of apoptotic cells was determined using a kit quantifying the DEVDase, caspase 3 activity. The number of apoptotic cells incubated with AD-2672 exceeded 6-fold those in the control cells. Cells incubated with AD-2665 exceeded 2.8-fold those in the control cells.

[6] = system: Bod3-SPM; test: Sphingolipid metabolism from Bodipy-C3-ceramide in HL60 cells: Bod3-SPM; format: cell-based, Human; conditions: for IC50: Homo sapiens, HL-60, 3 h, HL60, 3 hours, 2.5 µM Bodipy-C3-ceramide, cell + medium, read-out: Bod 3-SPM (IC50 for reduction); for inhibition of Bod3-SPM (fluorescent image): HL60, 10 µM
Experimental: as §2, §3, §4

[7] = system: HL60 cells; test: HL60 cell viability by total protein content (Bradford); format: cell-based, Human; conditions: for IC50: HL60, 2 days
Experimental: The effect of the AD-2646 compound on cell viability was further supported when the total protein content was quantified. HL60 cells were incubated as described above, with different concentrations of AD-2646. After 2 days the cells were collected, washed twice with saline, dispersed and following a short pulsing with a probe-sonicator their protein content was quantified by the Bradford procedure. Similarly to the viable cell counting results, the protein measurements indicated an IC50 value of 5 µM.
To analyze whether the AD-2646 compound may mediate its effect on cell viability and on total protein content, in cooperation with other compounds, the cooperative effect of this compound and Taxol was next evaluated. HL60 cells were incubated for two days with 4 µM AD2646 in the presence or absence of 2 ng Taxol. […]
as §1

[8] = system: Bod3-SPM; test: Sphingolipid metabolism from Bodipy-C3-ceramide in TSU-PR1 cells: Bod3-SPM; format: cell-based; conditions: Homo sapiens; TSU-PR1, 3 hours, Fig. 5; read-out: reduction of Bod3-SPM, IC50
Experimental: as §2, §3, §4
The effect of AD-2646 on sphingolipid metabolism was further examined using TSU-PR1 prostate cancer cells. […]

[9] = system: Swiss mice; test: In vivo toxicity, mice viability
Experimental: Six groups, each of 5 Swiss mice were injected, intra-peritoneally with solutions of AD-2646, at varying concentrations, each in a volume of 100 µl. Injections were performed on days 1, 2, 3, 4, and mice viability was tested (Table 5).

[10] = system: TSU-PR1 cells; test: TSU-PR1 cytotoxicity by protein content; format: cell-based; conditions: Homo sapiens, 48 h; TSU-PR1, two days, Fig. 2
Experimental: In order to evaluate the generality of AD-2646 compound effect on cell viability, other cell lines were subjected to the same procedures disclosed herein above.
TSU-PR1 cells (prostate cancer cells) were incubated for two days with increasing concentrations of AD-2646. The protein content measurements shown in Fig. 2 indicate that the cells were killed with an IC50 of 6-7 µM.

[11] = system: HL60 cells; test: HL60 cell viability, viable cell count with trypan blue; format: cell-based, Human
Experimental: The effect of AD-2646 on cell viability was analyzed by measuring cell mortality (viable cell count) and/or total protein quantity. HL60 cells grown in RMPI plus 10% fetal calf serum, were incubated with increasing concentrations of (2R,3R)-2-(N-tetradecylamine)-1-(4-nitrophenyl)-1,3-propanediol (AD-2646) in 6- or 24-well dishes. […] After 2 days the cells were collected, washed twice with saline, treated with trypan blue and the number of living (non-blue) cells was counted. Fig. 1 indicates an IC50 value of 5 µM.
Kinetic of the observed killing effect of the AD-2646 compound was next examined. HL60 cells were incubated with 40 µM of AD-2646 for 1, 3, 5 and 7 hours. Already after 1 hour a reduction of 60% of the viable cell number was observed.

[12] = target: T1, Bod3-GC (Homo sapiens, UniProt Q16739); test: Sphingolipid metabolism from Bodipy-C3-ceramide in HL60 cells: Bod3-GC; format: cell-based; conditions: HL60, 10 µM, Fig. 6
T1 sequence (Q16739 1-394): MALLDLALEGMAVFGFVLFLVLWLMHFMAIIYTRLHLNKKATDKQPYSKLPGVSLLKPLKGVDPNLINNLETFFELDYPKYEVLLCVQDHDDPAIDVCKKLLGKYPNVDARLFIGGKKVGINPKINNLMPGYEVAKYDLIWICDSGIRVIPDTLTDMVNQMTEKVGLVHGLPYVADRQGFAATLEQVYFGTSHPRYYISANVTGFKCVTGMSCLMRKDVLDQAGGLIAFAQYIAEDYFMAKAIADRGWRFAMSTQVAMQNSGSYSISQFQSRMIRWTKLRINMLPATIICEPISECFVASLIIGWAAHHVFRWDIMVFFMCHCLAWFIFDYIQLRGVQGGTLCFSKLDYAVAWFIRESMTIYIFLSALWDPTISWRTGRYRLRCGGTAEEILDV
Experimental: as §2, §3, §4

[13] = system: Leishmania major promastigote; test: Leishmania major promastigote cell count; format: cell-based; conditions: promastigotes, 3 h, 27°C, cell counting; read-out: IC50 for cell reduction
Experimental: 2 × 10^5 Leishmania major promastigote cell, each in a volume of 100 µl were added to 100 µl medium (RPMI 1640 culture medium complemented with 20% FCS, 1% penicillin and 1% streptomycin) in 96-well plates containing zero and increasing concentrations of (2S,3R)-2-N-aminohexyl-1-(4-N-hexylamiuophenyl)-1,3-propanediol (AD-2663) in 2-fold serial dilution. After incubation period (3 h, 27°C) the number of cells was determined by counting on aliquot from each well on a Neulander cell counter under a microscope. The IC50 for cell reduction was 7 µM.

[14] = system: sphingomyelinases; test: Sphingomyelinase inhibition, HL60 cell sonicate (Table 4, acid or neutral not stated); format: biochemical, Human
Experimental: N-hexyl-sphingosyl phosphorylcholine (AD-2144) was tested as to its inhibitory effect on sphingomyelinases, acidic (i.e., with an optimum at about pH 5) or neutral (with a pH optimum at about pH 7.4). For this purpose a sonicate of HL60 leukemic cells was used as enzyme source. Increasing concentrations of AD-2144 were dispersed by a mixture of fluorescent and non-fluorescent sphingomyelin (Bodipy-C12-SPM:SPM, 1:19), buffer and 0.25% Triton-X100 in a volume of 100 µl. For acid sphingomyelinase 0.4M acetate buffer pH 5.0 was used; for neutral sphingomyelinase 0.2M Tris buffer, pH 7.4 and 5 mM magnesium chloride. To 100 µl of these dispersions, 100 µl of HL60 cells sonicate were added. Incubation was 2-3 hours after which 0.8 ml of chloroform:methanol 2:1 were added, stirred and the lower, chloroform phase was collected, dried and applied to a thin layer chromatography plate. The plate was developed in a mixture of chloroform and methanol, 87:3. The fluorescence of the product, i.e., Bodipy-C12-ceramide, was quantified.
For acid sphingomyelinase as well as for neutral spingomyelinase: at 300 µM of AD-2144 there was a reduction of over 60% in Bodipy-C12-ceramide. […]

Molecule `CCCCCCNc1ccc([C@@H](O)[C@@H](CO)NCCCCCC)cc1` [AD-2665, (2R,3R)-2-(N-hexylamine)-1-(4-N-hexylaminophenyl)-1,3-propanediol] has an IC50 [1] of 3 µM, an IC50 [2] of 7 µM and an IC50 [3] of 10 µM. The IC50 [4] was 7 µM, the fold induction at 5 µM [5] was 2.8 and the IC50 [6] was 4 µM.

Work on `CCCCCCCCCCCCCCN[C@H](CO)[C@H](O)c1ccc([N+](=O)[O-])cc1` [AD-2646, (2R, 3R)-2-(N-tetradecylamine)-1-(4-nitrophenyl)-1,3-propanediol] yielded a Protein content ([7]; HL60, two days, 4 µM AD2646 alone) of 174 µg, an IC50 ([7]; Homo sapiens, HL-60, 48 h) of 5 µM and an IC50 [8] of roughly 5 µM. The “No. of mice in each day” value ([9]; 1mg/kg intra-peritoneally on days 1-4, group of 5, day 1) was 5, the “No. of mice in each day” value ([9]; 1mg/kg intra-peritoneally on days 1-4, group of 5, day 2) was 5 and the “No. of mice in each day” value ([9]; 1mg/kg intra-peritoneally on days 1-4, group of 5, day 3) was 5. The “No. of mice in each day” value ([9]; 1mg/kg intra-peritoneally on days 1-4, group of 5, day 4) was 5, the “No. of mice in each day” value ([9]; 1mg/kg intra-peritoneally on days 1-4, group of 5, day 5) was 5 and the “No. of mice in each day” value ([9]; 1mg/kg intra-peritoneally on days 1-4, group of 5, day 6) was 5. The “No. of mice in each day” value ([9]; 5mg/kg intra-peritoneally on days 1-4, group of 5, day 1) was 5, the “No. of mice in each day” value ([9]; 5mg/kg intra-peritoneally on days 1-4, group of 5, day 2) was 5 and the “No. of mice in each day” value ([9]; 5mg/kg intra-peritoneally on days 1-4, group of 5, day 3) was 5. The “No. of mice in each day” value ([9]; 5mg/kg intra-peritoneally on days 1-4, group of 5, day 4) was 5, the “No. of mice in each day” value ([9]; 5mg/kg intra-peritoneally on days 1-4, group of 5, day 5) was 5 and the “No. of mice in each day” value ([9]; 5mg/kg intra-peritoneally on days 1-4, group of 5, day 6) was 5. The IC50 [10] was 6 to 7 µM, the “reduction of the viable cell number” value ([11]; HL60, 40 µM, after 1 hour) was 60% and the IC50 ([11]; Homo sapiens, HL-60, 48 h, HL60, 2 days, trypan blue, Fig. 1) was 5 µM. For the same molecule, the IC50 [6] was roughly 6 µM.

In the case of `CCCCCCCCCCCC(=O)Nc1ccc([C@H](O)[C@@H](N)CO)cc1` [AD-2674], the “reduction of the level of Bod3-GC (fluorescent image)” value [12] is reported as “much stronger reduction of the level of Bod3-GC” and the “inhibition of Bod3-SPM (fluorescent image)” value ([6]; Fig. 6) is reported as “low inhibition of Bod3-SPM”.

In the case of `CCCCCCNc1ccc([C@@H](O)[C@H](CO)NCCCCCC)cc1` [AD-2663, (2S,3R)-2-N-aminohexyl-1-(4-N-hexylamiuophenyl)-1,3-propanediol], the IC50 [13] is reported as 7 µM.

In the case of `CCCCCCCCCCCC(=O)Nc1ccc([C@@H](O)[C@H](N)CO)cc1` [AD-2673], the IC50 ([7]; Homo sapiens, HL-60, 48 h) is reported as 7.5 µM, the “reduction of the level of Bod3-GC (fluorescent image)” value [12] is reported as “much stronger reduction of the level of Bod3-GC” and the “inhibition of Bod3-SPM (fluorescent image)” value ([6]; Fig. 6) is reported as “low inhibition of Bod3-SPM”. The IC50 [6] was 6 µM.

For `CCCCCCCCCCCCC/C=C/[C@H](O)[C@@H](COP(=O)([O-])OCC[N+](C)(C)C)NCCCCCC` [AD-2144, N-hexyl-sphingosyl phosphorylcholine], the “% reduction in Bodipy-C12-ceramide” value ([14]; AD-2144 concentration 50µl) was 30%, the “% reduction in Bodipy-C12-ceramide” value ([14]; AD-2144 concentration 100µl) was 44% and the “% reduction in Bodipy-C12-ceramide” value ([14]; AD-2144 concentration 150µl) was 65%. The “% reduction in Bodipy-C12-ceramide” value ([14]; AD-2144 concentration 300µl) was 82%.

For `CCCCCCCCCCCCCCN[C@H](CO)[C@H](O)c1ccc(N)cc1` [AD-2672, (2R,3R)-2-(N-tetradecylamine)-1-(4-aminophenyl)-1,3-propanediol], the fold induction at 5 µM [5] was 6, the “level of Bod3-SPM (fluorescent image)” value ([6]; HL60, 5 and 10 µM, Fig. 6) was “strongly reduces the level of Bod3-SPM” and the IC50 [6] was 4 µM.

Work on “(2R, 3S)-2-BOC-amino-1-[4-N-(dodecanoyl-12-N-BOC-amine)-phenyl)-1,3-propanediol [AD-2620]” yielded an IC50 [7] of 3 µM.

Source: EP1430019B1, “SPHINGOLIPIDS” (priority 2001, dated 2003)
